Reference: patent US8580815B2, “Derivatives of azaindoles as inhibitors of protein kinases ABL and SRC” (Oribase Pharma, priority 2009, dated 2013)

Target: Abl T315I (Homo sapiens (Human), UniProt P00519, T315I)
Experiment: Reaction Biology Corp. kinase assay, mutated Abl T315I
Assay type: biochemical
Settings: 10 μM; Reaction Biology Corp.; read-out: % inhibition of kinase activity, Abl T315I (category)
Procedure: (§1) 4 compounds were tested for their capacity to inhibit various mutated kinases AbI (American company, Reaction Biology Corp.).

How did the inhibition at 10 µM turn out when `COC(=O)c1cc2cc(NCc3ncc[nH]3)cnc2[nH]1` [ND0095] was run?
Its inhibition at 10 µM is under 10%.

For `COC(=O)c1cc2cc(NCc3cc[nH]n3)cnc2[nH]1` [ND0098], which inhibition at 10 µM is on record?
Its inhibition at 10 µM is under 10%.

`COC(=O)c1cc2cc(NCc3ccc(S(N)(=O)=O)cc3)cnc2[nH]1` [ND0101] was tested. Which inhibition at 10 µM did it give?
The inhibition at 10 µM was under 10%.

`COC(=O)c1cc2cc(Nc3cccc(I)c3)cnc2[nH]1` [ND0103] was tested. Which inhibition at 10 µM did it give?
The inhibition at 10 µM was under 10%.

How did the inhibition at 10 µM turn out when `COC(=O)c1cc2cc(Nc3ccc(I)cc3)cnc2[nH]1` [ND0108] was run?
Its inhibition at 10 µM is 10 to 50%.

Target: Abl kinase (h) (Homo sapiens (Human), UniProt P00519)
Experiment: Cerep kinase profiling, HTRF assay, Abl kinase
Assay type: biochemical
Settings: 10 μM; compounds tested by Cerep; read-out: % inhibition of kinase activity, Abl WT (category)
Procedure: The inhibitory activity of the compounds of the chemical series on different protein kinases was evaluated by Cerep (Cerep Kinase Profiling Service; www.cerep.com). The kinases used in the tests in vitro are human recombinant proteins expressed in human cells, insect cells or in bacteria. […] The activity of the kinase was then detected by an HTRF assay. The HTRF assay (CisBio International) is based on fluorescence transfer, using Europium (Eu3+) cryptate and XL665 respectively as donor and acceptor. When the biotinylated or tagged substrate is phosphorylated by the kinase, it reacts with a cryptate-labelled phosphospecific antibody. Addition of Streptavidin-XL665, SA-XL665, (or anti-tag antibody XL665) leads to juxtaposition of the cryptate and of the fluorophore XL665, which is reflected in fluorescence resonance energy transfer (FRET). The intensity of FRET depends on the quantity of cryptate-labelled antibody bound to the substrate, which is proportional to the quantity of phosphorylated substrate (Mathis, G. Probing molecular interactions with homogeneous techniques based on rare earth cryptates and fluorescence energy transfer.

`CCC(=O)Nc1cnc2[nH]c(C(=O)OC)cc2c1` [ND0046, Methyl 5-(propionamido)-1H-pyrrolo[2,3-b]pyridine-2-carboxylate] was tested. Which inhibition at 10 µM did it give?
The inhibition at 10 µM was 10 to 50%.

How did the inhibition at 10 µM turn out when `COC(=O)c1cc2cc(NC(=O)c3cccnc3)cnc2[nH]1` [ND0050, Methyl 5-(nicotinamido)-1H-pyrrolo[2,3-b]pyridine-2-carboxylate] was run?
Its inhibition at 10 µM is 10 to 50%.

`COC(=O)c1cc2cc(NC(=O)c3cccc(C#N)c3)cnc2[nH]1` [ND0051, Methyl 5-(3-cyanobenzamido)-1H-pyrrolo[2,3-b]pyridine-2-carboxylate] was tested. Which inhibition at 10 µM did it give?
The inhibition at 10 µM was 10 to 50%.

`COC(=O)c1cc2cc(NC(=O)c3cccc(F)c3)cnc2[nH]1` [ND0053, Methyl 5-(3-fluorobenzamido)-1H-pyrrolo[2,3-b]pyridine-2-carboxylate] was tested. Which inhibition at 10 µM did it give?
The inhibition at 10 µM was 10 to 50%.

For `COC(=O)c1cc2cc(NC(=O)c3ccc(-c4csc(C)n4)cc3)cnc2[nH]1` [ND0054, Methyl 5-(4-(2-methylthiazol-4-yl)benzamido)-1H-pyrrolo[2,3-b]pyridine-2-carboxylate], which inhibition at 10 µM is on record?
The inhibition at 10 µM was 10 to 50%.

How did the inhibition at 10 µM turn out when `COC(=O)c1cc2cc(NC(=O)c3ccccc3Oc3ccccc3)cnc2[nH]1` [ND0059, Methyl 5-(2-phenoxybenzamido)-1H-pyrrolo[2,3-b]pyridine-2-carboxylate] was run?
Its inhibition at 10 µM is under 10%.

Which inhibition at 10 µM does the source give for `CCCSc1ncccc1C(=O)Nc1cnc2[nH]c(C(=O)OC)cc2c1` [ND0060, Methyl 5-(2-(propylthio)pyridine-3-carboxamido)-1H-pyrrolo[2,3-b]pyridine-2-carboxylate] here?
Its inhibition at 10 µM is 10 to 50%.

For `COC(=O)c1cc2cc(NC(=O)c3cccc(F)c3F)cnc2[nH]1` [ND0061, Methyl 5-(2,3-difluorobenzamido)-1H-pyrrolo[2,3-b]pyridine-2-carboxylate], which inhibition at 10 µM is on record?
Its inhibition at 10 µM is 10 to 50%.

For `COC(=O)c1cc2cc(NC(=O)c3cccc4c3OCC4)cnc2[nH]1` [ND0062, Methyl 5-(2,3-dihydrobenzofuran-7-carboxamido)-1H-pyrrolo[2,3-b]pyridine-2-carboxylate], which inhibition at 10 µM is on record?
The inhibition at 10 µM was under 10%.

Same assay, conditions: Table 6; compound incubated at 10 μM; read-out: Percentage inhibition of kinase Abl

For `CCC(=O)Nc1cnc2[nH]c(C(=O)OC)cc2c1` [ND0046, Methyl 5-(propionamido)-1H-pyrrolo[2,3-b]pyridine-2-carboxylate], which inhibition at 10 µM is on record?
The inhibition at 10 µM was 49%.

Which inhibition at 10 µM does the source give for `COC(=O)c1cc2cc(NC(=O)c3cccnc3)cnc2[nH]1` [ND0050, Methyl 5-(nicotinamido)-1H-pyrrolo[2,3-b]pyridine-2-carboxylate] here?
Its inhibition at 10 µM is 27%.

For `COC(=O)c1cc2cc(NC(=O)c3cccc(C#N)c3)cnc2[nH]1` [ND0051, Methyl 5-(3-cyanobenzamido)-1H-pyrrolo[2,3-b]pyridine-2-carboxylate], which inhibition at 10 µM is on record?
The inhibition at 10 µM was 20%.

Which inhibition at 10 µM does the source give for `COC(=O)c1cc2cc(NC(=O)c3cccc(F)c3)cnc2[nH]1` [ND0053, Methyl 5-(3-fluorobenzamido)-1H-pyrrolo[2,3-b]pyridine-2-carboxylate] here?
Its inhibition at 10 µM is 33%.

`COC(=O)c1cc2cc(NC(=O)c3ccc(-c4csc(C)n4)cc3)cnc2[nH]1` [ND0054, Methyl 5-(4-(2-methylthiazol-4-yl)benzamido)-1H-pyrrolo[2,3-b]pyridine-2-carboxylate] was tested. Which inhibition at 10 µM did it give?
Its inhibition at 10 µM is 15%.

With `COC(=O)c1cc2cc(NC(=O)c3ccccc3Oc3ccccc3)cnc2[nH]1` [ND0059, Methyl 5-(2-phenoxybenzamido)-1H-pyrrolo[2,3-b]pyridine-2-carboxylate] as the compound, how does the inhibition at 10 µM read?
The inhibition at 10 µM was 5%.

For `CCCSc1ncccc1C(=O)Nc1cnc2[nH]c(C(=O)OC)cc2c1` [ND0060, Methyl 5-(2-(propylthio)pyridine-3-carboxamido)-1H-pyrrolo[2,3-b]pyridine-2-carboxylate], which inhibition at 10 µM is on record?
Its inhibition at 10 µM is 16%.

`COC(=O)c1cc2cc(NC(=O)c3cccc(F)c3F)cnc2[nH]1` [ND0061, Methyl 5-(2,3-difluorobenzamido)-1H-pyrrolo[2,3-b]pyridine-2-carboxylate] was tested. Which inhibition at 10 µM did it give?
The inhibition at 10 µM was 46%.

For `COC(=O)c1cc2cc(NC(=O)c3cccc4c3OCC4)cnc2[nH]1` [ND0062, Methyl 5-(2,3-dihydrobenzofuran-7-carboxamido)-1H-pyrrolo[2,3-b]pyridine-2-carboxylate], which inhibition at 10 µM is on record?
The inhibition at 10 µM was 6%.

Target: Src kinase (Homo sapiens (Human), UniProt P12931)
Experiment: Reaction Biology Corp. kinase assay, Src
Settings: IC50 on kinase Src (category), compounds tested by Reaction Biology Corp., ATP at 10 μM

Chain of Src kinase (P12931 whole entry, looked up): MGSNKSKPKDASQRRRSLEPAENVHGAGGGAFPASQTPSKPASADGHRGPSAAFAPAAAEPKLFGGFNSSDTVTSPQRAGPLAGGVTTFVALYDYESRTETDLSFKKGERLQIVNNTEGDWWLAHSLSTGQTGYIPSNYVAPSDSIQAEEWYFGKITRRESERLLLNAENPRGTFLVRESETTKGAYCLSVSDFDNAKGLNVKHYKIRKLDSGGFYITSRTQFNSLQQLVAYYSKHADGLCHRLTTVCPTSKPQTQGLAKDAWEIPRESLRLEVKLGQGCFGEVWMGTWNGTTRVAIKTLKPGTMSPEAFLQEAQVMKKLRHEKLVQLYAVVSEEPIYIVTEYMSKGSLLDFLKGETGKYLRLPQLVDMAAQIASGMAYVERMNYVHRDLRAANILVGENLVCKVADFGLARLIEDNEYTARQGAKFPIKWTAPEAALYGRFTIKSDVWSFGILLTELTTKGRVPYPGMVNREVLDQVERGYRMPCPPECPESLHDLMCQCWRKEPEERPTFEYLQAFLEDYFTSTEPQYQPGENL

`COC(=O)c1cc2cc(NCc3cc[nH]n3)cnc2[nH]1` [ND0098] was tested. Which IC50 did it give?
Its IC50 is 0.1 to 10 µM.

Same assay, conditions: read-out: % inhibition of kinase activity, Src (category), 10 μM; compounds tested by Reaction Biology Corp.

Which inhibition at 10 µM does the source give for `COC(=O)c1cc2cc(NCc3ncc[nH]3)cnc2[nH]1` [ND0095] here?
The inhibition at 10 µM was 10 to 50%.

`COC(=O)c1cc2cc(NCc3cc[nH]n3)cnc2[nH]1` [ND0098] was tested. Which inhibition at 10 µM did it give?
Its inhibition at 10 µM is over 50%.

For `COC(=O)c1cc2cc(NCc3ccc(S(N)(=O)=O)cc3)cnc2[nH]1` [ND0101], which inhibition at 10 µM is on record?
Its inhibition at 10 µM is 10 to 50%.

`COC(=O)c1cc2cc(Nc3cccc(OC)c3)cnc2[nH]1` [ND0102] was tested. Which inhibition at 10 µM did it give?
Its inhibition at 10 µM is 10 to 50%.

`COC(=O)c1cc2cc(Nc3cccc(I)c3)cnc2[nH]1` [ND0103] was tested. Which inhibition at 10 µM did it give?
Its inhibition at 10 µM is 10 to 50%.

With `COC(=O)c1cc2cc(Nc3cccc(Br)c3)cnc2[nH]1` [ND0104] as the compound, how does the inhibition at 10 µM read?
The inhibition at 10 µM was under 10%.

With `COC(=O)c1cc2cc(Nc3ccc(Br)cc3)cnc2[nH]1` [ND0107] as the compound, how does the inhibition at 10 µM read?
The inhibition at 10 µM was 10 to 50%.

Which inhibition at 10 µM does the source give for `COC(=O)c1cc2cc(Nc3ccc(I)cc3)cnc2[nH]1` [ND0108] here?
The inhibition at 10 µM was 10 to 50%.

For `COC(=O)c1cc2cc(Nc3ccc(OC)cc3)cnc2[nH]1` [ND0109], which inhibition at 10 µM is on record?
The inhibition at 10 µM was 10 to 50%.

Target: Abl WT (Homo sapiens (Human), UniProt P00519)
Experiment: Reaction Biology Corp. kinase assay, Abl WT
Assay type: biochemical
Settings: 10 μM; compounds tested by Reaction Biology Corp.; read-out: % inhibition of kinase activity, Abl WT (category)
Procedure: as §1

Which inhibition at 10 µM does the source give for `COC(=O)c1cc2cc(NCc3ncc[nH]3)cnc2[nH]1` [ND0095] here?
The inhibition at 10 µM was 10 to 50%.

With `COC(=O)c1cc2cc(NCc3cc[nH]n3)cnc2[nH]1` [ND0098] as the compound, how does the inhibition at 10 µM read?
The inhibition at 10 µM was over 50%.

How did the inhibition at 10 µM turn out when `COC(=O)c1cc2cc(NCc3ccc(S(N)(=O)=O)cc3)cnc2[nH]1` [ND0101] was run?
Its inhibition at 10 µM is over 50%.

For `COC(=O)c1cc2cc(Nc3cccc(I)c3)cnc2[nH]1` [ND0103], which inhibition at 10 µM is on record?
The inhibition at 10 µM was 10 to 50%.

Which inhibition at 10 µM does the source give for `COC(=O)c1cc2cc(Nc3ccc(I)cc3)cnc2[nH]1` [ND0108] here?
The inhibition at 10 µM was 10 to 50%.

Same assay, conditions: compounds tested by Reaction Biology Corp., ATP at 10 μM; read-out: IC50 on kinase Abl WT (category)

How did the IC50 turn out when `COC(=O)c1cc2cc(NCc3cc[nH]n3)cnc2[nH]1` [ND0098] was run?
Its IC50 is 0.1 to 10 µM.
